Test results reported in patent US20210308101A1, “METHODS OF TREATING FIBROMYALGIA” (Aptinyx Inc., priority 2019, published 2021).

Columns and labels:
[1] = tested on: subjects with fibromyalgia; assay: PROMISFM fatigue profile; assay type: in vivo, human
Description: As used herein, the “PROMISFM” fatigue profile is Patient Reported Outcomes Measurement Information System Fibromyalgia, which is a 16-question instrument which has four 4-item short forms that examines the intensity of the impact of fatigue in social, cognitive and motivation subdomains. All 16 questions are based on a 5-point numerical rating scale/Likert scale ranging from 1 to 5, with different categorical responses. Lower scores represent a better quality of life. The PROMISFM fatigue profile is made of the 4 following subdomains: • Experience Subdomain Score 3 Questions with Scores Ranging from 1 (Not at All) to 5 (Very Much): • How tired did you feel on average? • How fatigued were you on average? • How exhausted were you on average? 1 Question with Scores Ranging from 1 (None) to 5 (Very Severe): • What was the level of your fatigue on most days? • Sum of those 4 Questions make up the Experience Subdomain Score Ranging from 4 to 20 • Social Impact Subdomain Score 2 Questions with Scores Ranging from 1 (Not at All) to 5 (Very Much): • To what degree did your fatigue interfere with your social activities? • To what degree did your fatigue interfere with your ability to engage in recreational activities? 2 Questions with Scores Ranging from 1 (Never) to 5 (Always): • How often did you have to limit your social activities because of your fatigue? • How often were you too tired to socialize with your friends? • Sum of those 4 Questions make up the Social Impact Subdomain Score Ranging from 4 to 20 • Motivational Impact Subdomain Score 2 Questions with Scores Ranging from 1 (Not at All) to 5 (Very Much): • To what degree did you have trouble starting things because of your fatigue? • To what degree did you have trouble finishing things because of your fatigue? […] 2 Questions with Scores Ranging from 1 (Never) to 5 (Always): • How often were you too tired to think clearly? • How often did your fatigue make you more forgetful? • Sum of those 4 Questions make up the Cognitive Impact Subdomain Score Ranging from 4 to 20
If at least 2 questions were answered within an individual subdomain, that subdomain score was imputed if missing responses are present. Each subdomain score was multiplied by 4/(number of questions answered) and rounded off to the nearest whole number. Otherwise, that subdomain score was set to missing. The total score was calculated by taking the sum of those 4 subdomains and ranged from 16 to 80. If any of the subdomains were missing, the total score was set to missing. The PROMISFM fatigue profile assessment was collected and analyzed at visits Screening, Day 1, Week 2, Week 4, Week 6, and Follow-up (Week 7). The observed total and subdomain scores, changes from baseline, and changes from treatment periods were summarized using descriptive statistics. Additionally, the treatment group comparisons were analyzed using the paired t-test and nonparametric Wilcoxon signed-rank test. All PROMISFM fatigue profile data collected and the calculated total and subdomain scores at each visit were presented in a subject listing.

[2] = tested on: pain-evoked brain activity; assay: fMRI of evoked cuff pain, BOLD activations; assay type: in vivo, human
Description: As used herein, “Functional Magnetic Resonance Imaging of Evoked Pain and Visual Stimulation” refers to the following procedure. During evoked pain and visual stimulation fMRI paradigms, participants were lying in the scanner as they received either pressure stimulation to their calf muscle or they experienced an unpleasant visual stimulus. For both pain and visual stimulation, whole-brain Blood Oxygenation Level Dependent (BOLD) functional images were acquired.
Each subject underwent a 12-minute block design scan, during which 3 cuff pressure levels (2 equal pressures=15 to 30 and 100 to 115 mmHg; and 1 equal pain=40 to 60/100 numerical rating scale [NRS] units) were applied to the left calf […] using the pressure cuff device in pseudo-random order for a total of 12 pressure stimulations. Pressure levels for each subject were determined during the QST assessment. Each pressure stimulus was applied for 14 seconds. Prior to each pressure stimulus, a 4-second visual cue was presented to signal upcoming cuff pressure to limit any stimulus-onset startle reflex. Subjects' head motion was minimized using foam pads around the head, and a strap secured across the forehead.
As with functional connectivity analyses, pre-processing of images occurs using SPM12. The first 5 images were discarded from the data set and not used for further analysis in order to correct for equilibration effects. Pre-processing steps included: physio-correction, motion correction, coregistration, normalization, and smoothing (FWHM 6 or 8 mm). First level analyses were performed using the general linear model (GLM) implemented in SPM12. Motion parameters from re-alignment were modelled as regressors of no interest. Pain and visual blocks were convolved with a canonical hemodynamic response function and contrasted with rest blocks of no stimulation. These activation maps were then passed up to group-level analyses comparing differences in activations at the analysis visits of interest in SPM. Resulting maps were set at an uncorrected voxel threshold of p<0.001, with p<0.05 FDR or FWE significance corrected for multiple comparisons. The primary analyses were a paired sample t-tests between placebo images and NYX-2925 images (either 20 or 200 mg).
Several analyses were conducted with the fMRI resting state and task data. Results were assessed by: 1) a primary analysis, where a finding was deemed significant with a corrected cluster level p<0.05, derived from an uncorrected voxel-wise p<0.001, and 2) an exploratory analysis, where a finding was deemed significant with an uncorrected voxel-wise p<0.005 and having a cluster greater than or equal to 80 contiguous voxels. Results that met significance in the primary analyses had connectivity values extracted and imported into SPSS v25 where paired t-tests were performed to assess for potential outliers contributing to the finding. Remaining data were then correlated with clinical measures using parametric bivariate Pearson correlations. Results were deemed significant at p<0.05.

## CC(C)C(=O)N1CCC[C@]12CN([C@H](C(N)=O)[C@@H](C)O)C2=O [NYX-2925, (2S, 3R)-3-hydroxy-2-((R)-5-isobutyryl-1-oxo-2,5-diazaspiro[3.4]octan-2-yl)butanamide]
[1]; NYX-2925 20 mg
  PROMISFM total fatigue profile score, change from baseline: reductions from baseline
[1]; NYX-2925 treatment at Weeks 4 and 6
  PROMISFM Cognitive Impact Subdomain Score, changes from Week 2 (placebo): not statistically significant
[1]; Week 2 (placebo) to Week 4 (NYX-2925 20 mg), not statistically significant
  PROMISFM Fatigue Profile Total Score, mean change: −3.4
[1]; Week 2 (placebo) to Week 6 (NYX-2925 200 mg), p=0.0036
  PROMISFM Experience Subdomain Score, mean change: −2.2
[1]; Week 2 (placebo) to Week 6 (NYX-2925 200 mg), p=0.0049
  PROMISFM Fatigue Profile Total Score, mean change: −5.6
[1]; Week 2 (placebo) to Week 6 (NYX-2925 200 mg), p=0.0329
  PROMISFM Social Impact Subdomain Score, mean change: −1.4
[1]; Week 2 (placebo) to Week 6 (NYX-2925 200 mg), p=0.0490
  PROMISFM Motivational Impact Subdomain Score, mean change: −1.0
[1]; week six, after four weeks of NYX-2925, scale 16 to 80, n=21
  PROMISFM Fatigue Profile total score, reduction from baseline: 5.4 point
[2]; 200 mg dose vs placebo, FIGS. 4A, 4B
  pain-evoked brain activity in brain imaging, subject 1: reduced pain-related brain activity
[2]; 200 mg dose vs placebo, FIGS. 4C, 4D
  pain-evoked brain activity in brain imaging, subject 2: reduction in pain-related brain activity
[2]; exploratory, placebo visit to NYX-2925 20 mg visit
  BOLD activations in right mid cingulate cortex and left primary somatosensory cortex/supplementary motor area: decreased
[2]; exploratory, placebo visit to NYX-2925 200 mg visit
  BOLD activations in right putamen/insula, bilateral primary somatosensory/cingulate cortex, left putamen, left posterior insula: decreased
[2]; primary analyses
  BOLD activations, evoked cuff pain task (Pain50 pressure > rest): No significant BOLD activations
